Results as given in patent publication US12655116B2, “Substituted isophthalic acid diamides” (Bayer Aktiengesellschaft, priority 2020, dated 2026).

Tests used:
[1] = test system: SETVI; assay: Pre-emergence herbicidal action against SETVI; assay type: in vivo, Setaria viridis; conditions: dosage 80 g/ha; for pest or weed control at 80 g/ha: Setaria viridis, 504 h
Outline: (§1)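 Pre-emergence soil-surface spray of formulated compound (WP or EC; 600 to 800 l/ha; 0.2% wetting agent) over seeds sown in sandy loam. After 3 weeks under greenhouse conditions, damage is estimated visually in percent against untreated plants.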

[2] = test system: ECHCG; assay: Post-emergence herbicidal action against ECHCG; assay type: in vivo, Echinochloa crus-galli
Outline: (§2)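 Greenhouse plants in sandy loam were sprayed at the one-leaf stage, 2 to 3 weeks after sowing, with WP or EC formulations as aqueous suspension or emulsion (600 to 800 l/ha water, 0.2% wetting agent). Visual damage was scored about 3 weeks later versus untreated controls, 0% = like control, 100% = dead.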

[3] = test system: ABUTH; assay: Pre-emergence herbicidal action against ABUTH; assay type: in vivo, Abutilon theophrasti
Outline: as §1

[4] = test system: MATIN; assay: Pre-emergence herbicidal action against MATIN; assay type: in vivo, Matricaria inodora; conditions: for pest or weed control at 20 g/ha / pest or weed control at 80 g/ha: Tripleurospermum inodorum, 504 h
Outline: as §1

[5] = test system: AVEFA; assay: Pre-emergence herbicidal action against AVEFA; assay type: in vivo, Avena fatua; conditions: 80 g/ha, pre-emergence; for pest or weed control at 80 g/ha: Avena fatua, 504 h
Outline: as §1

[6] = test system: DIGSA; assay: Post-emergence herbicidal action against DIGSA; assay type: in vivo, Digitaria sanguinalis
Outline: as §2

[7] = test system: MATIN; assay: Post-emergence herbicidal action against MATIN; assay type: in vivo, Matricaria inodora; conditions: dosage 20 g/ha
Outline: as §2

[8] = test system: DIGSA; assay: Pre-emergence herbicidal action against DIGSA; assay type: in vivo, Digitaria sanguinalis
Outline: as §1

[9] = test system: SETVI; assay: Post-emergence herbicidal action against SETVI; assay type: in vivo, Setaria viridis; conditions: Setaria viridis, 504 h; for pest or weed control at 5 g/ha: dosage 5 g/ha; for pest or weed control at 20 g/ha: dosage 20 g/ha
Outline: as §2

[10] = test system: AMARE; assay: Post-emergence herbicidal action against AMARE; assay type: in vivo, Amaranthus retroflexus; conditions: 20 g/ha, visual assessment about 3 weeks after treatment, 100% = plants have died, 0% = like control plants; for pest or weed control at 20 g/ha: Amaranthus retroflexus, 504 h
Outline: as §2

[11] = test system: VERPE; assay: Pre-emergence herbicidal action against VERPE; assay type: in vivo, Veronica persica; conditions: dosage 80 g/ha; for pest or weed control at 80 g/ha: Veronica persica, 504 h
Outline: as §1

[12] = test system: POLCO; assay: Pre-emergence herbicidal action against POLCO; assay type: in vivo, Polygonum convolvulus; conditions: dosage 80 g/ha; for pest or weed control at 80 g/ha: Fallopia convolvulus, 504 h
Outline: as §1

[13] = test system: ALOMY; assay: Pre-emergence herbicidal action against ALOMY; assay type: in vivo, Alopecurus myosuroides; conditions: pre-emergence; for pest or weed control at 80 g/ha / pest or weed control at 20 g/ha: Alopecurus myosuroides, 504 h; for pest or weed control at 20 g/ha: scored visually after 3 weeks, 100% = plants have died, 0% = like control plants
Outline: as §1

[14] = test system: ALOMY; assay: Post-emergence herbicidal action against ALOMY; assay type: in vivo, Alopecurus myosuroides; conditions: Alopecurus myosuroides, 504 h, visual assessment about 3 weeks after treatment vs untreated controls; for pest or weed control at 20 g/ha: dosage 20 g/ha; for pest or weed control at 5 g/ha: dosage 5 g/ha
Outline: as §2

[15] = test system: PHBPU; assay: Post-emergence herbicidal action against PHBPU; assay type: in vivo, Pharbitis purpurea; conditions: Ipomoea purpurea, 504 h, dosage 20 g/ha
Outline: as §2

[16] = test system: AMARE; assay: Pre-emergence herbicidal action against AMARE; assay type: in vivo, Amaranthus retroflexus; conditions: for pest or weed control at 20 g/ha / pest or weed control at 80 g/ha: Amaranthus retroflexus, 504 h
Outline: as §1

[17] = test system: VIOTR; assay: Pre-emergence herbicidal action against VIOTR; assay type: in vivo, Viola tricolor; conditions: for pest or weed control at 80 g/ha: Viola tricolor, 504 h
Outline: as §1

[18] = test system: ECHCG; assay: Pre-emergence herbicidal action against ECHCG; assay type: in vivo, Echinochloa crus-galli; conditions: 80 g/ha; for pest or weed control at 80 g/ha: Echinochloa crus-galli, 504 h
Outline: as §1

[19] = test system: PHBPU; assay: Pre-emergence herbicidal action against PHBPU; assay type: in vivo, Pharbitis purpurea; conditions: dosage 80 g/ha; for pest or weed control at 80 g/ha: Ipomoea purpurea, 504 h
Outline: as §1

[20] = test system: VIOTR; assay: Post-emergence herbicidal action against VIOTR; assay type: in vivo, Viola tricolor; conditions: for pest or weed control at 20 g/ha: Viola tricolor, 504 h
Outline: as §2

[21] = test system: ABUTH; assay: Post-emergence herbicidal action against ABUTH; assay type: in vivo, Abutilon theophrasti; conditions: visual assessment about 3 weeks after treatment vs untreated controls; for pest or weed control at 5 g/ha / pest or weed control at 20 g/ha: Abutilon theophrasti, 504 h
Outline: as §2

[22] = Echinochloa crus-galli, 504 h, dosage 20 g/ha
[23] = Abutilon theophrasti, 504 h, 80 g/ha, scored visually after 3 weeks vs untreated controls (100% = plants have died, 0% = like control plants)
[24] = 80 g/ha, scored visually after 3 weeks vs untreated controls (100% = plants have died, 0% = like control plants)
[25] = 20 g/ha, scored visually after 3 weeks vs untreated controls, 100% = plants have died, 0% = like control plants
[26] = 80 g/ha, scored visually after 3 weeks vs untreated controls, 100% = plants have died, 0% = like control plants

Cn1nnnc1NC(=O)c1ccc(C(F)F)c(C(=O)NCC(F)(F)F)c1Br [Example 1-229]
pest or weed control at 80 g/ha [1]: 100% | pest or weed control at 5 g/ha ([2]; Echinochloa crus-galli, 504 h, dosage 5 g/ha): 90% | pest or weed control at 20 g/ha [2, 22]: 90% | pest or weed control at 80 g/ha [3, 23]: 100% | pest or weed control at 20 g/ha ([3]; Abutilon theophrasti, 504 h, dosage 20 g/ha, scored visually after 3 weeks vs untreated controls, 100% = plants have died, 0% = like control plants, read-out: Pre-emergence action against ABUTH (herbicidal activity in percent)): 90% | pest or weed control at 20 g/ha ([4]; dosage 20 g/ha): 100% | pest or weed control at 80 g/ha ([4]; dosage 80 g/ha): 100% | pest or weed control at 80 g/ha [5]: 80% | pest or weed control at 5 g/ha ([6]; Digitaria sanguinalis, 504 h, 5 g/ha): 90% | pest or weed control at 20 g/ha ([6]; Digitaria sanguinalis, 504 h, 20 g/ha): 90% | pest or weed control at 20 g/ha ([7]; Tripleurospermum inodorum, 504 h): 80% | pest or weed control at 20 g/ha ([8]; Digitaria sanguinalis, 504 h, dosage 20 g/ha): 100% | pest or weed control at 80 g/ha ([8]; Digitaria sanguinalis, 504 h, dosage 80 g/ha): 100% | pest or weed control at 5 g/ha [9]: 80% | pest or weed control at 20 g/ha [9]: 90% | pest or weed control at 20 g/ha [10]: 90% | pest or weed control at 80 g/ha [11]: 100% | pest or weed control at 80 g/ha [12]: 80% | pest or weed control at 80 g/ha [13, 24]: 90% | pest or weed control at 20 g/ha [14]: 80% | pest or weed control at 20 g/ha [15]: 80% | pest or weed control at 20 g/ha [16, 25]: 100% | pest or weed control at 80 g/ha [16, 26]: 100% | pest or weed control at 80 g/ha ([17]; dosage 80 g/ha): 100% | pest or weed control at 80 g/ha [18]: 80% | pest or weed control at 80 g/ha [19]: 90%

CCn1nnnc1NC(=O)c1ccc(C(F)F)c(C(=O)NC)c1Br [Example 2-225]
Pre-emergence action against SETVI in % [1]: 100% | Post-emergence action against ECHCG in % ([2]; dosage 20 g/ha): 100% | Pre-emergence action against ABUTH (herbicidal activity) [3, 24]: 100% | Pre-emergence action against ABUTH (herbicidal activity in percent) ([3]; dosage 20 g/ha, scored visually after 3 weeks vs untreated controls, 100% = plants have died, 0% = like control plants): 100% | Post-emergence action against VIOTR in % ([20]; 5 g/ha): 100% | Post-emergence action against VIOTR in % ([20]; 20 g/ha): 100% | Pre-emergence action against MATIN in % ([4]; dosage 20 g/ha): 80% | Pre-emergence action against MATIN in % ([4]; dosage 80 g/ha): 100% | Pre-emergence action against AVEFA in % [5]: 80% | Post-emergence action against DIGSA ([6]; 20 g/ha): 100% | Post-emergence action against MATIN in % [7]: 80% | Pre-emergence action against DIGSA in % ([8]; dosage 20 g/ha): 100% | Pre-emergence action against DIGSA in % ([8]; dosage 80 g/ha): 100% | Post-emergence action against ABUTH in % ([21]; dosage 5 g/ha): 100% | Post-emergence action against ABUTH in % ([21]; dosage 20 g/ha): 100% | Post-emergence action at 20 g/ha against AMARE in % [10]: 100% | Pre-emergence action against VERPE in % [11]: 100% | Pre-emergence action against POLCO in % [12]: 90% | Pre-emergence action against ALOMY (herbicidal activity) [13, 24]: 100% | Pre-emergence action against AMARE in % [16, 25]: 100% | Pre-emergence action against AMARE in % [16, 24]: 100% | Pre-emergence action against VIOTR in % ([17]; dosage 20 g/ha): 80% | Pre-emergence action against VIOTR in % ([17]; dosage 80 g/ha): 100% | Pre-emergence action against ECHCG in % [18]: 90% | Pre-emergence action against PHBPU in % [19]: 90%

CCNC(=O)c1c(Cl)ccc(C(=O)Nc2nnnn2CC)c1Br [Example 2-348]
pest or weed control at 80 g/ha [1]: 100% | pest or weed control at 20 g/ha [2, 22]: 80% | pest or weed control at 80 g/ha [3, 23]: 100% | pest or weed control at 20 g/ha ([20]; 20 g/ha): 80% | pest or weed control at 20 g/ha ([4]; dosage 20 g/ha): 90% | pest or weed control at 80 g/ha ([4]; dosage 80 g/ha): 90% | pest or weed control at 80 g/ha [5]: 100% | pest or weed control at 5 g/ha ([21]; dosage 5 g/ha): 90% | pest or weed control at 20 g/ha ([21]; dosage 20 g/ha): 90% | pest or weed control at 5 g/ha [9]: 80% | pest or weed control at 20 g/ha [9]: 100% | pest or weed control at 20 g/ha [10]: 100% | pest or weed control at 80 g/ha [11]: 80% | pest or weed control at 80 g/ha [12]: 90% | pest or weed control at 80 g/ha [13, 24]: 100% | pest or weed control at 20 g/ha [13]: 90% | pest or weed control at 5 g/ha [14]: 80% | pest or weed control at 20 g/ha [14]: 90% | pest or weed control at 20 g/ha [15]: 80% | pest or weed control at 20 g/ha [16, 25]: 100% | pest or weed control at 80 g/ha [16, 26]: 100% | pest or weed control at 80 g/ha ([17]; dosage 80 g/ha): 100% | pest or weed control at 80 g/ha [18]: 100% | pest or weed control at 80 g/ha [19]: 80%

CCCNC(=O)c1c(Br)ccc(C(=O)Nc2nnnn2C)c1Cl [Example 1-184]
pest or weed control at 20 g/ha [2, 22]: 100% | pest or weed control at 80 g/ha [3, 23]: 100% | pest or weed control at 20 g/ha ([20]; 20 g/ha): 90% | pest or weed control at 20 g/ha ([4]; dosage 20 g/ha): 80% | pest or weed control at 80 g/ha ([4]; dosage 80 g/ha): 100% | pest or weed control at 5 g/ha ([21]; dosage 5 g/ha): 80% | pest or weed control at 20 g/ha ([21]; dosage 20 g/ha): 80% | pest or weed control at 20 g/ha [10]: 100% | pest or weed control at 80 g/ha [11]: 90% | pest or weed control at 80 g/ha [12]: 80% | pest or weed control at 80 g/ha [13, 24]: 100% | pest or weed control at 20 g/ha [13]: 90% | pest or weed control at 5 g/ha [14]: 80% | pest or weed control at 20 g/ha [14]: 80% | pest or weed control at 20 g/ha [15]: 80% | pest or weed control at 20 g/ha [16, 25]: 100% | pest or weed control at 80 g/ha [16, 26]: 100% | pest or weed control at 80 g/ha ([17]; dosage 80 g/ha): 90% | pest or weed control at 80 g/ha [18]: 100% | pest or weed control at 80 g/ha [19]: 80%
